Reference: ChEMBL document CHEMBL3091339 (J Med Chem, 2013)
Active and inactive are the calls of the source.

What was measured:
Mus musculus [1] = assay: Anticonvulsant activity in CD-1 mouse assessed as protection against maximal electroshock-induced tonic extension of hind limbs at 100 mg/kg, po after 2 hrs; type: functional, organism-based; parameters: dose 100 mg/kg; conditions: Hindlimb
[2] = target: Sodium channel protein type 2 subunit alpha (Rattus norvegicus) (UniProt P04775); type: cell-based; conditions: CHL1610
Rattus norvegicus [3] = assay: Anticonvulsant activity in ip dosed Sprague-Dawley rat hippocampal kindling model assessed as suppression of seizure activity treated 15 for mins post suprathreshold-stimulation; type: functional, organism-based; conditions: Hippocampus
[4] = target: Voltage-dependent N-type calcium channel subunit alpha-1B (Rattus norvegicus) (UniProt Q02294); assay: Inhibition of rat Cav2.2-mediated calcium flux expressed in HEK cells at 100 uM at 0.07 Hz by whole-cell patch-clamp assay relative to control; type: cell-based; conditions: HEK293
Rattus norvegicus [5] = assay: Oral bioavailability in rat at 10 mg/kg; type: ADME, organism-based; conditions: in vivo
in vivo [6] = conditions: beagle, dog, po, 10 mg/kg
in vivo [7] = conditions: rat, po, 10 mg/kg
[8] = Cmax in beagle dog at 10 mg/kg, po; type: ADME, organism-based, Canis lupus familiaris; parameters: dose 10 mg/kg, route oral; conditions: in vivo
Canis familiaris = assay: Oral bioavailability in beagle dog at 10 mg/kg; type: ADME, organism-based, Canis lupus familiaris; conditions: in vivo
Mus musculus [9] = assay: Anticonvulsant activity in intravenous PTZ-induced CF-1 mouse assessed as increase in seizure threshold for clonus at […], ip treated for 15 mins prior to PTZ-challenge relative to control; type: functional
[10] = target: Sodium channel protein type 2 subunit alpha (Rattus norvegicus) (UniProt P04775); conditions: CHL1610
Mus musculus [11] = assay: Anticonvulsant activity in CD-1 mouse assessed as protection against maximal electroshock-induced tonic extension of hind limbs at 100 mg/kg, po after 0.5 hrs; type: functional, organism-based; parameters: dose 100 mg/kg; conditions: Hindlimb
[12] = target: T1, Voltage-dependent N-type calcium channel subunit alpha-1B (Rattus norvegicus, UniProt Q02294)
Description: Inhibition of rat Cav2.2-mediated calcium flux expressed in HEK cells at 0.07 Hz by whole-cell patch-clamp assay

[13] = target: T1, Voltage-dependent N-type calcium channel subunit alpha-1B; remark: listed apart in the source
Description: Inhibition of rat Cav2.2-mediated calcium flux expressed in HEK cells by FDSS assay

[14] = Clearance in beagle dog at 2 mg/kg, iv; type: ADME, organism-based, Canis lupus familiaris; parameters: dose 2 mg/kg, route intravenous; conditions: in vivo
[15] = Neurotoxicity in rat by muscle tone test; type: toxicity, organism-based, Muscle tissue; conditions: in vivo
[16] = Half life in beagle dog at 10 mg/kg, po; type: ADME, organism-based, Canis lupus familiaris; parameters: dose 10 mg/kg, route oral; conditions: in vivo
[17] = target: Sodium-dependent dopamine transporter (Homo sapiens) (UniProt Q01959); assay: Binding affinity to dopamine transporter (unknown origin)
[18] = target: Sodium channel protein type 2 subunit alpha (Rattus norvegicus, UniProt P04775); assay: Inhibition of rat Nav1.2 expressed in CHL1610 cells at -67 mV after 2 to 3 mins by whole-cell patch-clamp assay; type: cell-based
Homo sapiens [19] = species: Homo sapiens; assay: Binding affinity to chloride channel (unknown origin) at 10 uM
[20] = target: Voltage-dependent N-type calcium channel subunit alpha-1B (Rattus norvegicus) (UniProt Q02294); assay: Inhibition of rat Cav2.2-mediated calcium flux expressed in HEK cells at 100 uM at 5 Hz by whole-cell patch-clamp assay relative to control; type: cell-based; conditions: HEK293
[21] = Cmax in rat at 10 mg/kg, po; type: ADME, organism-based; parameters: dose 10 mg/kg, route oral; conditions: in vivo
Rattus norvegicus [22] = assay: Anticonvulsant activity in ip dosed Sprague-Dawley rat hippocampal kindling model assessed as effect on after discharge duration treated 15 for mins post suprathreshold-stimulation; type: functional, organism-based; conditions: Hippocampus
[23] = Neurotoxicity in rat by positional sense test; type: toxicity, organism-based; conditions: in vivo
[24] = Clearance in rat at 2 mg/kg, iv; type: ADME, organism-based; parameters: dose 2 mg/kg, route intravenous; conditions: in vivo
[25] = target: Sodium channel protein type 2 subunit alpha (Rattus norvegicus) (UniProt P04775); type: cell-based; conditions: CHL1610; remark: listed apart in the source
Mus musculus [26] = assay: Anticonvulsant activity in intravenous PTZ-induced CF-1 mouse assessed as increase in seizure threshold for twitch at […], ip treated for 15 mins prior to PTZ-challenge relative to control; type: functional
[27] = target: T2, 5-hydroxytryptamine receptor 2C (Homo sapiens) (UniProt P28335); assay: Binding affinity to 5HT2C receptor (unknown origin)
T2 sequence (whole entry): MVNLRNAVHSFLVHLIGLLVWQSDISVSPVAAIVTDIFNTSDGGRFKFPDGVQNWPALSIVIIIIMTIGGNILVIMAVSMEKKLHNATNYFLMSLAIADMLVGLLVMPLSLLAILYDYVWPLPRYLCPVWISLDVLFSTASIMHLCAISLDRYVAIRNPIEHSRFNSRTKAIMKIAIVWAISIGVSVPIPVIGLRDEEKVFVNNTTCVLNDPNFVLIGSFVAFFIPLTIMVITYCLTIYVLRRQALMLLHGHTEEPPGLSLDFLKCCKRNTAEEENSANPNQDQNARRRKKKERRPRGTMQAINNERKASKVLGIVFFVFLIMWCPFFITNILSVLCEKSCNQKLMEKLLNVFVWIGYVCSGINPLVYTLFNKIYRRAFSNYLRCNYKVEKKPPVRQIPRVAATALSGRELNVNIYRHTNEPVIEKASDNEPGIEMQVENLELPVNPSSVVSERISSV

Homo sapiens [28] = species: Homo sapiens; assay: Binding affinity to central-type benzodiazepine receptor (unknown origin) at 10 uM
[29] = Volume of distribution at steady state in rat at 2 mg/kg, iv; type: ADME, organism-based; parameters: dose 2 mg/kg, route intravenous; conditions: in vivo, read-out: Vdss
Homo sapiens [30] = species: Homo sapiens; assay: Binding affinity to GABA (unknown origin) at 10 uM
Mus musculus [31] = assay: Anticonvulsant activity in CD-1 mouse assessed as protection against maximal electroshock-induced tonic extension of hind limbs at 300 mg/kg, po after 2 hrs; type: functional, organism-based; parameters: dose 300 mg/kg; conditions: Hindlimb
Rattus norvegicus [32] = assay: Anticonvulsant activity in ip dosed Sprague-Dawley rat hippocampal kindling model assessed as reduction in global seizures treated 15 for mins post suprathreshold-stimulation; type: functional, organism-based; conditions: Hippocampus
Carbonic anhydrase 1 = Carbonic anhydrase 1 (Homo sapiens, UniProt P00915); assay: Inhibition of carbonic anhydrase 1 (unknown origin)
[33] = target: Histamine H1 receptor (Homo sapiens) (UniProt P35367); assay: Inhibition of histamine H1 receptor (unknown origin) at 10 uM relative to control
[34] = Half life in rat at 10 mg/kg, po; type: ADME, organism-based; parameters: dose 10 mg/kg, route oral; conditions: in vivo
[35] = Volume of distribution at steady state in beagle dog at 2 mg/kg, iv; type: ADME, organism-based, Canis lupus familiaris; parameters: dose 2 mg/kg, route intravenous; conditions: in vivo, read-out: Vdss
Liver microsome = assay: Drug metabolism in human liver microsomes assessed as hydroxylation metabolite formation by LC-MS/MS analysis; type: ADME
[36] = AUC in beagle dog at 10 mg/kg, po; type: ADME, organism-based, Canis lupus familiaris; parameters: dose 10 mg/kg, route oral; conditions: plasma
Mus musculus [37] = assay: Anticonvulsant activity in intravenous PTZ-induced CF-1 mouse assessed as increase in seizure threshold for twitch at 182 mg/kg, po treated for 15 mins prior to PTZ-challenge relative to control; type: functional
[38] = Neurotoxicity in po dosed Sprague-Dawley rat by rotarod test; type: toxicity, organism-based; conditions: in vivo
Mus musculus [39] = assay: Anticonvulsant activity in CD-1 mouse assessed as protection against maximal electroshock-induced tonic extension of hind limbs at 300 mg/kg, ip after 0.5 hrs; type: functional, organism-based; parameters: dose 300 mg/kg; conditions: Hindlimb
Mus musculus [40] = assay: Anticonvulsant activity in intravenous PTZ-induced CF-1 mouse assessed as increase in seizure threshold for clonus at 182 mg/kg, po treated for 15 mins prior to PTZ-challenge relative to control; type: functional
Rattus norvegicus [41] = species: Rattus norvegicus; assay: Toxicity in Sprague-Dawley rat assessed as ataxia by Irwin test; type: organism-based; conditions: in vivo
Carbonic anhydrase 2 = Carbonic anhydrase 2 (Homo sapiens, UniProt P00918)
Description: Inhibition of human carbonic anhydrase 2 by CO2 hydration assay

Mus musculus [42] = species: Mus musculus; assay: animal or person; conditions: CF-1, Hindlimb, po, 1 h
Description: Anticonvulsant activity in po dosed CF-1 mouse assessed as protection against maximal electroshock-induced tonic extension of hind limbs measured at 1 hr

Mus musculus [43] = assay: Neurotoxicity in CF-1 mouse at 150 mg/kg, po by rotarod test; type: toxicity, organism-based; parameters: dose 150 mg/kg, route oral; conditions: in vivo

Sequence of Sodium channel protein type 2 subunit alpha (Rattus norvegicus) (P04775 whole entry, looked up): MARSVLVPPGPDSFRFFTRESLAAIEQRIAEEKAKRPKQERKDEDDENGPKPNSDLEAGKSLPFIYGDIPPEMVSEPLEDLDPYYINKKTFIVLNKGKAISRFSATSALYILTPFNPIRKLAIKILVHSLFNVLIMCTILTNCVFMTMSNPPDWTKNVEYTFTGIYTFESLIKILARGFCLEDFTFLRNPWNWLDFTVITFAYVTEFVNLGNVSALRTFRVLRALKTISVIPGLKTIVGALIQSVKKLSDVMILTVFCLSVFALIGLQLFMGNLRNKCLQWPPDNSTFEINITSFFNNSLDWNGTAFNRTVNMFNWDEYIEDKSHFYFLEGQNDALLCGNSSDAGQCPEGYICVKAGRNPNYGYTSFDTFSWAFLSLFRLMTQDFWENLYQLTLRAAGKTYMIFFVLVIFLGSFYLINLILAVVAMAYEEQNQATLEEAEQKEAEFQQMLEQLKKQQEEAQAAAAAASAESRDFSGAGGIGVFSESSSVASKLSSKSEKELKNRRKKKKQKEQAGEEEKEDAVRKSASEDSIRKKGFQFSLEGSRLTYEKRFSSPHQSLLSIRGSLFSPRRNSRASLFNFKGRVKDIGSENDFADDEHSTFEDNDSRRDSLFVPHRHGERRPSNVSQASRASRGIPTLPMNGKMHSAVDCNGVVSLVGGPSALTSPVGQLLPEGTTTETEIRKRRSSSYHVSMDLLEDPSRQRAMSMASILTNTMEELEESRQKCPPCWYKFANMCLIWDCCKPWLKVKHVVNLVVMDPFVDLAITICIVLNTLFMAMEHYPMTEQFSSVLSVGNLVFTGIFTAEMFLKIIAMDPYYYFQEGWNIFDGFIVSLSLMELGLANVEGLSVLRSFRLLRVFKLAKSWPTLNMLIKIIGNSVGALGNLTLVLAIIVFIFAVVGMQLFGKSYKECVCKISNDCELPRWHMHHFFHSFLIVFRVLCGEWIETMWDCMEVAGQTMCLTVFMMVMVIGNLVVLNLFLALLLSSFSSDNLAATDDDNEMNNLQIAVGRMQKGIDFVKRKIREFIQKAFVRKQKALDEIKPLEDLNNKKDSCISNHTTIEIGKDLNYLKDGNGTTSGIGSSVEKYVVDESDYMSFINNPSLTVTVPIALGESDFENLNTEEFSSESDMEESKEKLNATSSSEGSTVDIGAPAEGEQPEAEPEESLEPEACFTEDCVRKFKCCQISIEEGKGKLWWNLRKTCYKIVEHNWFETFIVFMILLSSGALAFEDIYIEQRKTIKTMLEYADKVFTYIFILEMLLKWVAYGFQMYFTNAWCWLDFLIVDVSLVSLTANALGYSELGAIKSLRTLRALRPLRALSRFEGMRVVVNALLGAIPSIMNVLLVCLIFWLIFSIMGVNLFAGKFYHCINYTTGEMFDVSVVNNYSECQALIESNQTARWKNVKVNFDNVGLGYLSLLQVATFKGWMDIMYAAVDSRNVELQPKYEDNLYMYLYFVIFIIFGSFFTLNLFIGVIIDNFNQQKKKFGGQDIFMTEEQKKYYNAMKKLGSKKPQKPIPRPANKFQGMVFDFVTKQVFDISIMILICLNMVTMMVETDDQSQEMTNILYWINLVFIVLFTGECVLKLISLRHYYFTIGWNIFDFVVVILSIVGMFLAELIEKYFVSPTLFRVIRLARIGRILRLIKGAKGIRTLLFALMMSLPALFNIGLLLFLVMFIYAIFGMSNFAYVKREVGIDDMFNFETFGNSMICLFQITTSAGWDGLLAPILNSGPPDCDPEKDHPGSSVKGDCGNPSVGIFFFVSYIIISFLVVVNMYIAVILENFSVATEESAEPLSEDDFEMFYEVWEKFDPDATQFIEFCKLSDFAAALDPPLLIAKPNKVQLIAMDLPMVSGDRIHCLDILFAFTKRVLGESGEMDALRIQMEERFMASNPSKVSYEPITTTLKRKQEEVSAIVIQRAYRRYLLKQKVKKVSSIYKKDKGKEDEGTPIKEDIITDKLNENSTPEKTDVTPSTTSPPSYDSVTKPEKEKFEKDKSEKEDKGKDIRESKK
T1 sequence (Q02294 whole entry): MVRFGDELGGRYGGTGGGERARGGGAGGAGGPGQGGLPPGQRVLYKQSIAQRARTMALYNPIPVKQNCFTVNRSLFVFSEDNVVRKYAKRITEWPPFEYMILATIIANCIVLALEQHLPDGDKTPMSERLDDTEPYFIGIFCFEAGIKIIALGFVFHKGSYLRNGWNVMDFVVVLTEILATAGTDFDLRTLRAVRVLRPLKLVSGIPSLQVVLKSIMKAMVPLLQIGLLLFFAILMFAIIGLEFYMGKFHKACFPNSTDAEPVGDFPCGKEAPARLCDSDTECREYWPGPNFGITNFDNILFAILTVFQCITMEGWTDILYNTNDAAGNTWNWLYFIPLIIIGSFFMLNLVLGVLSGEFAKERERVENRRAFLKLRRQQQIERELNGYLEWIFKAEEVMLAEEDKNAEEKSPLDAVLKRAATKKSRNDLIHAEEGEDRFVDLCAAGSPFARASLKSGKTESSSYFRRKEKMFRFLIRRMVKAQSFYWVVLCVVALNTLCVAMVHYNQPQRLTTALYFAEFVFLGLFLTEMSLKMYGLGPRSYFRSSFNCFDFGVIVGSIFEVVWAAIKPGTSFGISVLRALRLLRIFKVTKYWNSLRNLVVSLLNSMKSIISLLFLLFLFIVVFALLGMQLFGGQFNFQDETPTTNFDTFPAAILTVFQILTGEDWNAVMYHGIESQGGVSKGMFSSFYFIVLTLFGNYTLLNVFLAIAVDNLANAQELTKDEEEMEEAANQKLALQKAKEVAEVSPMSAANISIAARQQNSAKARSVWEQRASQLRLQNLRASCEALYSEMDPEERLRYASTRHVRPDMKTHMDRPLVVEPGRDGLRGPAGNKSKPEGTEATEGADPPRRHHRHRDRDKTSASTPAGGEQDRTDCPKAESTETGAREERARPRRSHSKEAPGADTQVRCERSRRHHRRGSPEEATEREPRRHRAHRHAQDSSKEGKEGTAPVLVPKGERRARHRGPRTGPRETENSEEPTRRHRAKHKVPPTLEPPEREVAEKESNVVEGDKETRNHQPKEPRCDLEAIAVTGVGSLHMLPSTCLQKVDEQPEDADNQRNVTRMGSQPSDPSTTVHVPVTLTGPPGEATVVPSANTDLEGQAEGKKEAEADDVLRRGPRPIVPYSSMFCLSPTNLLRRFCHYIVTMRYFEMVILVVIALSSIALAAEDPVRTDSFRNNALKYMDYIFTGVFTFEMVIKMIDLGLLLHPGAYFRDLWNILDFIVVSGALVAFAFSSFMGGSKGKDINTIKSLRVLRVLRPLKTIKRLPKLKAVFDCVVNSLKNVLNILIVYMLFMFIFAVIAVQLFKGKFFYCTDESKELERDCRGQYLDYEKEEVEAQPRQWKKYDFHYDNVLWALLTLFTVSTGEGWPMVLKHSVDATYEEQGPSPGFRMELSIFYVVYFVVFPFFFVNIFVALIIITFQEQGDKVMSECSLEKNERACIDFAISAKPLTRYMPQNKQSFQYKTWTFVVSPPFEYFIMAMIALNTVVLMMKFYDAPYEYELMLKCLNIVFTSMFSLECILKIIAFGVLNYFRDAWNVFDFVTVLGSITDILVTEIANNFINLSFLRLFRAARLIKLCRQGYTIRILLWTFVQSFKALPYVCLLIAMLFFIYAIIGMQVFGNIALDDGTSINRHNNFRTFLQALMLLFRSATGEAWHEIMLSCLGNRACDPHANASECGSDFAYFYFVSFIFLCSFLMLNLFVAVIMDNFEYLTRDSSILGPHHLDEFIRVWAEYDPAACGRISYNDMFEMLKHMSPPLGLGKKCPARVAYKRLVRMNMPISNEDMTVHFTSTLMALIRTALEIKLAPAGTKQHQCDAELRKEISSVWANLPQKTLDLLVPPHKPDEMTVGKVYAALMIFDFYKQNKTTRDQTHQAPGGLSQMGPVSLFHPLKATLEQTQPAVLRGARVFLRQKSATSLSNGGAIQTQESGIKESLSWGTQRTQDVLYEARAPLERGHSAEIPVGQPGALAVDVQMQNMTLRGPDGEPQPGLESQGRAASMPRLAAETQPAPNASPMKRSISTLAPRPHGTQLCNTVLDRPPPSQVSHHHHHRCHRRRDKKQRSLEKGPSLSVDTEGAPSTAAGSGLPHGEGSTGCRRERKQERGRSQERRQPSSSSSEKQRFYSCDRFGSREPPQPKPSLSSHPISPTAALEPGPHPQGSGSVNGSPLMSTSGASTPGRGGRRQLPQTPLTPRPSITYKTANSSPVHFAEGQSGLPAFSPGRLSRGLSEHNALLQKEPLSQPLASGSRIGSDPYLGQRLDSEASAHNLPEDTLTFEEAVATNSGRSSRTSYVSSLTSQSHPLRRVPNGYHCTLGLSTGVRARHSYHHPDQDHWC
Sequence of Voltage-dependent N-type calcium channel subunit alpha-1B (Rattus norvegicus) (Q02294 whole entry, looked up): as the sequence (Q02294 whole entry) above
Sequence of Carbonic anhydrase 1 (P00915 whole entry): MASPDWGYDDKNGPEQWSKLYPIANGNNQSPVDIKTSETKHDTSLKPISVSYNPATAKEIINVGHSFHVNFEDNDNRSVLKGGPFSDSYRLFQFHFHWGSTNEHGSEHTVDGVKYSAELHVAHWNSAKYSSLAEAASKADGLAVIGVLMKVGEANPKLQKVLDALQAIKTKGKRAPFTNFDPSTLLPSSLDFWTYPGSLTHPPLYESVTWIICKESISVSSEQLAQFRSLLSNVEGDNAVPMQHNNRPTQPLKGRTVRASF
Sequence of Sodium channel protein type 2 subunit alpha (P04775 whole entry): as the sequence (P04775 whole entry, looked up) above

NS(=O)(=O)NC[C@H]1COc2cccc(Cl)c2O1
Activity (Mus musculus [1]): inactive

NCC1(CC(=O)O)CCCCC1
Activity [2]: inactive

CCC1(C)CC(=O)NC1=O (centres undefined)
Activity (Rattus norvegicus [3]): inactive

NS(=O)(=O)NC[C@H]1COc2cc(Cl)ccc2O1 [JNJ-26489112]
inhibition [4]: 37% | F (Rattus norvegicus [5]): 95% | Tmax (in vivo [6]): 0.917 h | Tmax (in vivo [7]): 0.883 h | Cmax [8]: 11.5 µg/mL | F (Canis familiaris): 83% | Activity (Mus musculus [9]): 232% | inhibition [10]: Dose-dependent effect | Activity (Mus musculus [11]): inactive | IC50 [12]: 70 µM | IC50 [13]: 34 µM | clearance [14]: 0.03 L/h/kg | NOAEL [15]: 500 mg/kg | half-life [16]: 20 h | INH [17]: 16 µM | IC50 [18]: 36 µM | inhibition (Homo sapiens [19]): inactive | inhibition [20]: 53% | Cmax [21]: 9.09 µg/mL | Activity (Rattus norvegicus [22]): inactive | NOAEL [23]: 500 mg/kg | clearance [24]: 0.096 L/h/kg | inhibition [25]: inactive | Activity (Mus musculus [26]): 80% | INH [27]: 29 µM | inhibition (Homo sapiens [28]): inactive | Vd [29]: 0.39 L/kg | inhibition (Homo sapiens [30]): inactive | Activity (Mus musculus [31]): Active | Activity (Rattus norvegicus [32]): Active | IC50 (Carbonic anhydrase 1): 18 µM | Ki (Carbonic anhydrase 1): 2.2 µM | inhibition [33]: 23% | half-life [34]: 8.2 h | Vd [35]: 0.63 L/kg | Drug metabolism (Liver microsome): Active | AUC [36]: 212 µg·h/mL

NS(=O)(=O)NCC1COc2ccccc2O1 (racemic)
Activity (Mus musculus [37]): 41% | TD50 [38]: 182 mg/kg | Activity (Mus musculus [39]): Active | Activity (Mus musculus [40]): 59%

NS(=O)(=O)NC[C@H]1COc2cc(F)ccc2O1
Activity (Mus musculus [31]): Active

NS(=O)(=O)NCC1Oc2ccc(Cl)cc2O1 (centres undefined)
Activity (Mus musculus [1]): inactive | Activity (Mus musculus [11]): inactive

NS(=O)(=O)NC[C@@H]1COc2ccccc2O1
Activity (Rattus norvegicus [41]): Toxic | Activity (Mus musculus [39]): Active

CN(C)S(=O)(=O)NCC1COc2ccccc2O1 (racemic)
IC50 (Carbonic anhydrase 2): > 1000 µM | Activity (Mus musculus [31]): inactive

COc1cccc2c1O[C@@H](CNS(N)(=O)=O)CO2
IC50 (Carbonic anhydrase 2): 300 µM | Activity (Mus musculus [1]): inactive | Activity (Mus musculus [11]): inactive

NS(=O)(=O)NC[C@H]1COc2c(Cl)cccc2O1
IC50 (Carbonic anhydrase 2): 220 µM | Activity (Mus musculus [11]): inactive | ED50 (Mus musculus [42]): 124 mg/kg

NS(=O)(=O)NC[C@H]1COc2ccc(Cl)cc2O1
Activity (Mus musculus [11]): inactive | Activity (Mus musculus [43]): Non-toxic
